The source of these data is patent US8383629B2, “Inhibitors of 11β-hydroxysteroid dehydrogenase type 1” (Vitae Pharmaceuticals, Inc., priority 2008, dated 2013).

The target in this test is T1, human 11β-HSD1 (Homo sapiens, UniProt P28845).
T1 construct: expressed in transfected cells; host or cells: CHO cells (microsomes)
The test is described as follows: Inhibition of microsomal preparation of 11β-HSD1 (SPA, Biological Test Example 1). The format is biochemical. The note with it: for inhibition at 0.111 µM: 111 nM; for IC50: microsomes from CHO cells overexpressing human 11β-HSD1, read-out: IC50 Range; for inhibition at 0.1 µM: 100 nM. On the procedure:
The inhibition of microsomal preparation of 11β-HSD1 by compounds of the invention was measured essentially as previously described (K. Solly, S. S. Mundt, H. J. Zokian, G. J. Ding, A. Hermanowski-Vosatka, B. Strulovici, and W. Zheng, High-Throughput Screening of 11-Beta-Hydroxysteroid Dehydrogenase Type 1 in Scintillation Proximity Assay Format. Assay Drug Dev Technol 3 (2005) 377-384). All reactions were carried out at rt in 96 well clear flexible PET Microbeta plates (PerkinElmer). The assay begins by dispensing 49 μl of substrate solution (50 mM HEPES, pH 7.4, 100 mM KCl, 5 mM NaCl, 2 mM MgCl2, 2 mM NADPH and 160 nM [^3H]cortisone (1 Ci/mmol)) and mixing in 1 μL of the test compounds in DMSO previously diluted in half-log increments (8 points) starting at 0.1 mM. After a 10 minute pre-incubation, 50 μL of enzyme solution containing microsomes isolated from CHO cells overexpressing human 11β-HSD1 (10-20 μg/ml of total protein) was added, and the plates were incubated for 90 minutes at rt. The reaction was stopped by adding 50 μl of the SPA beads suspension containing 10 μM 18β-glycyrrhetinic acid, 5 mg/ml protein A coated YSi SPA beads (GE Healthcare) and 3.3 μg/ml of anti-cortisol antibody (East Coast Biologics) in Superblock buffer (Bio-Rad). The plates were shaken for 120 minutes at rt, and the SPA signal corresponding to [^3H]cortisol was measured on a Microbeta plate reader.

The structures appear in SMILES notation.

T1 sequence (P28845 whole entry): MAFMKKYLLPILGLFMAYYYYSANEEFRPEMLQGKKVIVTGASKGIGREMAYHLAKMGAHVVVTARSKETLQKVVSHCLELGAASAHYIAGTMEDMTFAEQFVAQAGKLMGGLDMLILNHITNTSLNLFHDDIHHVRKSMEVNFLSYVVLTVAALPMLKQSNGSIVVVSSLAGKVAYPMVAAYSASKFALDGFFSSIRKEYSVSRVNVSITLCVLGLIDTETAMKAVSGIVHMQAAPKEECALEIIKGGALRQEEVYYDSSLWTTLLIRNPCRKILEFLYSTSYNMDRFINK

Regarding `O=C(CCc1ccccc1C(F)(F)F)N1CCC2(CC1)CNCc1ccccc12` [EXAMPLE 59, 1-(2,3-dihydro-1H-spiro[isoquinoline-4,4′-piperidine]-1′-yl)-3-(2-(trifluoromethyl)phenyl)propan-1-one], the inhibition (in general, the share of the control response that was lost under treatment) at 0.111 µM was determined as 66.6% and the IC50 – broadly, the concentration needed to halve the response being measured – is less than 100 nM.

Take `CN1C(=O)C2(CCN(C(=O)CCc3ccccc3C(F)(F)F)CC2)c2cc(C(N)=O)ccc21` [EXAMPLE 77, 1-methyl-2-oxo-1′-(3-(2-(trifluoromethyl)phenyl)propanoyl)spiro[indoline-3,4′-piperidine]-5-carboxamide]: the inhibition at 0.111 µM came out at 26.3% and the IC50 is 100 to 1000 nM.

As to `COC(=O)c1ccc2c(c1)C1(CCN(C(=O)/C=C/c3ccccc3C(F)(F)F)CC1)C(=O)N2C` [EXAMPLE 32, (E)-methyl 1-methyl-2-oxo-1′-(3-(2-(trifluoromethyl)phenyl)acryloyl)spiro[indoline-3,4′-piperidine]-5-carboxylate], the inhibition at 0.111 µM is 83.4% and the IC50 was less than 100 nM.

Regarding `CN1C(=O)C2(CCN(C(=O)CCc3ccccc3C(F)(F)F)CC2)c2ccccc21` [EXAMPLE 69, 1-methyl-1′-(3-(2-(trifluoromethyl)phenyl)propanoyl)spiro[indoline-3,4′-piperidin]-2-one], the inhibition at 0.1 µM was 93.5%, at 0.111 µM the inhibition was 93.8% and the half-maximal inhibitory concentration (IC50) was less than 100 nM.

For the compound `CS(=O)(=O)N1Cc2ccccc2C2(CCN(C(=O)/C=C/c3ccccc3C(F)(F)F)CC2)C1` [EXAMPLE 22, (E)-1-(2-(methylsulfonyl)-2,3-dihydro-1H-spiro[isoquinoline-4,4′-piperidine]-1′-yl)-3-(2-(trifluoromethyl)phenyl)prop-2-en-1-one], the inhibition at 0.111 µM came to 95.3% and the concentration for half-maximal inhibition (IC50) is less than 100 nM.

On to `O=C(O)CC1CC2(CCN(C(=O)CCc3ccccc3C(F)(F)F)CC2)c2c(Br)cccc21` (single isomer, unassigned) [EXAMPLE 70.1], for which testing at 0.111 µM gave an inhibition of 97.6% and the 50% inhibitory concentration (IC50) is less than 100 nM.

As for `Cc1ccccc1CNC(=O)N1CCC2(CC1)CC(CC(=O)O)c1cccc(Br)c12` (stereo not shown) [EXAMPLE 87, 2-(7-bromo-1′-(2-methylbenzylcarbamoyl)-2,3-dihydrospiro[indene-1,4′-piperidine]-3-yl)acetic acid], the inhibition at 0.111 µM is 57.2% and the half-inhibitory concentration (IC50) is less than 100 nM.

As for `O=C(O)CC1CC2(CCN(C(=O)/C=C/c3ccccc3C(F)(F)F)CC2)c2c(Br)cccc21` (racemic) [EXAMPLE 2, (±)-(E)-2-(7-bromo-1′-(3-(2-(trifluoromethyl)phenyl)acryloyl)-2,3-dihydrospiro[indene-1,4′-piperidine]-3-yl)acetic acid], testing at 0.1 µM gave an inhibition of 91.7%, the inhibition at 0.111 µM is 97.4% and the 50% inhibitory concentration (IC50) is less than 100 nM.

Take `CC(=O)N1Cc2ccccc2C2(CCN(C(=O)/C=C/c3ccccc3C(F)(F)F)CC2)C1` [EXAMPLE 23, (E)-1-(2-acetyl-2,3-dihydro-1H-spiro[isoquinoline-4,4′-piperidine]-1′-yl)-3-(2-(trifluoromethyl)phenyl)prop-2-en-1-one]: testing at 0.111 µM gave an inhibition of 94.9% and the IC50 is less than 100 nM.

As for `COc1ccc2c(c1)CCNC21CCN(C(=O)/C=C/c2ccccc2C(F)(F)F)CC1` [EXAMPLE 30, (E)-1-(6-methoxy-3,4-dihydro-2H-spiro[isoquinoline-1,4′-piperidine]-1′-yl)-3-(2-(trifluoromethyl)phenyl)prop-2-en-1-one], the inhibition at 0.1 µM was 90.3%, 0.111 µM produced 94.6% inhibition and the IC50 is less than 100 nM.

On to `Cc1ccc2c(c1)C1(CCN(C(=O)/C=C/c3ccccc3C(F)(F)F)CC1)CC2CC(=O)O` (racemic) [EXAMPLE 10, (±)-(E)-2-(6-methyl-1′-(3-(2-(trifluoromethyl)phenyl)acryloyl)-2,3-dihydrospiro[indene-1,4′-piperidine]-3-yl)acetic acid], for which the inhibition at 0.111 µM is 87.7% and the IC50 is less than 100 nM.
